Experimental data published in PubChem BioAssay (NCI).
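Interpolation was linear, between the two tested concentrations surrounding the appropriate level; five concentrations were tested over 48 hours in 96-well plates. At the TGI there is no net growth.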

Columns and labels:
Experiment in all cases: inhibition of tumour cell growth, NCI panel, 48 h
[1] = tested on: SK-MEL-2 melanoma
[2] = tested on: HCC-2998 colon
[3] = tested on: OVCAR-4 ovarian
[4] = tested on: ACHN renal
[5] = tested on: MALME-3M melanoma
[6] = tested on: COLO 205 colon
[7] = tested on: OVCAR-5 ovarian
[8] = tested on: U251 CNS
[9] = tested on: CCRF-CEM leukemia
[10] = tested on: HT29 colon
[11] = tested on: NCI-H23 lung
[12] = tested on: MOLT-4 leukemia
[13] = tested on: SN12C renal
[14] = tested on: NCI-H460 lung
[15] = tested on: HCT-15 colon
[16] = tested on: A549 NSCLC
[17] = tested on: A498 renal
[18] = tested on: 786-0 renal
[19] = tested on: EKVX NSCLC
[20] = tested on: LOX IMVI melanoma
[21] = tested on: IGROV1 ovarian
[22] = tested on: HOP-62 NSCLC
[23] = tested on: UO-31 renal
[24] = tested on: KM12 colon
[25] = tested on: SK-MEL-28 melanoma
[26] = tested on: SF-268 CNS
[27] = tested on: SNB-75 CNS
[28] = tested on: SW-620 colon
[29] = tested on: HCT-116 colon
[30] = tested on: DMS 273 small cell lung
[31] = tested on: TK-10 renal
[32] = tested on: NCI-H522 lung
[33] = tested on: OVCAR-3 ovarian
[34] = tested on: UACC-62 melanoma
[35] = tested on: SF-295 CNS
[36] = tested on: OVCAR-8 ovarian
[37] = tested on: RPMI-8226 leukemia
[38] = tested on: HOP-92 NSCLC
[39] = tested on: DLD-1 colon
[40] = tested on: M14 melanoma
[41] = tested on: UACC-257 melanoma
[42] = tested on: SK-OV-3 ovarian
[43] = tested on: K-562 leukemia
[44] = tested on: M19-MEL melanoma
[45] = tested on: SK-MEL-5 melanoma
[46] = tested on: KM20L2 colon
[47] = tested on: LXFL 529 NSCLC
[48] = tested on: SNB-19 CNS
[49] = tested on: MCF7 breast
[50] = tested on: NCI/ADR-RES ovarian
[51] = tested on: RXF 393 renal
[52] = tested on: MDA-MB-435
[53] = tested on: DU-145 prostate
[54] = tested on: BT-549 breast
[55] = tested on: T-47D breast
[56] = tested on: MDA-MB-231 breast
[57] = tested on: SF-539 CNS
[58] = tested on: CAKI-1 renal
[59] = tested on: HL-60(TB) leukemia
[60] = tested on: HS 578T breast
[61] = tested on: PC-3 prostate
[62] = tested on: MDA-N
[63] = tested on: NCI-H226 lung
[64] = tested on: SR leukemia

Measured: TGI

Cc1cc2c(=O)cc(-c3cccs3)oc2c(C(=O)O)c1C
48.4 µM: [32]
37.6 µM: [27]
not listed: [49] | [50] | [51] | [52] | [53] | [54] | [55] | [56] | [57] | [58] | [59] | [60] | [61] | [62] | [63] | [64]
> 100 µM: all other assays above

COc1ccc(-c2c(C#N)c(=O)nc(SC)n2C2OCC(OC(C)=O)C(OC(C)=O)C2OC(C)=O)cc1 (configuration not stated)
53.3 µM: [64]
not listed: [30] | [39] | [44] | [46] | [47]
> 100 µM: all other assays above
